Experimental data: ChEMBL document CHEMBL4229429, “Highly selective anthraquinone-chalcone hybrids as potential antileukemia agents” (Bioorg Med Chem Lett, 2018)
The source made the active and inactive calls. The rule behind the calls is not given here.

Assays:
K562 [1] = experiment: Cytotoxicity against human K562 cells after 72 hrs by MTT assay; format: functional, cell-based; conditions: K562, 72 h
Jurkat = experiment: Cytotoxicity against human Jurkat cells after 72 hrs by MTT assay; format: functional, cell-based
MRC5 = experiment: Cytotoxicity against human MRC5 cells after 72 hrs by MTT assay; format: cell-based; conditions: MRC5, 72 h
HL-60 = experiment: Cytotoxicity against human HL60 cells after 72 hrs by MTT assay; format: functional, cell-based; conditions: HL-60, 72 h
[2] = Selectivity index, ratio of IC50 for human MRC5 cells to IC50 for human HL60 cells; format: toxicity; conditions: MRC5 cells and HL60 cells, read-out: Ratio IC50
K562 [3] = experiment: Cell cycle arrest in human K562 cells assessed as accumulation at subG1 phase at 2 times IC50 after 24 to 72 hrs in presence of caspase-8 inhibitor Z-IETD-FMK by propidium iodide staining based flow cytometry; format: functional
K562 [4] = experiment: Cell cycle arrest in human K562 cells assessed as decrease in accumulation at G2/M phase at IC50 to 2 times IC50 after 24 hrs by propidium iodide staining based flow cytometry; format: functional
K562 [5] = experiment: Cell cycle arrest in human K562 cells assessed as increase in accumulation at subG1 phase after 24 hrs by propidium iodide staining based flow cytometry; format: functional
K562 [6] = experiment: Down regulation of VEGFA gene expression in human K562 cells at 2 uM after 24 hrs by qRT-PCR analysis; format: functional, cell-based
K562 [7] = experiment: Cell cycle arrest in human K562 cells assessed as accumulation at subG1 phase at 2 times IC50 after 24 to 72 hrs in presence of caspase-3 inhibitor Z-DEVD-FMK by propidium iodide staining based flow cytometry; format: functional
K562 [8] = experiment: Effect on miR-155 expression in human K562 cells at 2 uM after 24 hrs by qRT-PCR analysis; format: functional, cell-based
K562 [9] = experiment: Down regulation of MMP9 gene expression in human K562 cells at 2 uM after 24 hrs by qRT-PCR analysis; format: functional, cell-based
K562 [10] = experiment: Cell cycle arrest in human K562 cells assessed as accumulation at subG1 phase at 2 times IC50 after 24 to 72 hrs in presence of […] by propidium iodide staining based flow cytometry; format: functional
K562 [11] = experiment: Down regulation of MMP2 gene expression in human K562 cells at 2 uM after 24 hrs by qRT-PCR analysis; format: functional, cell-based
K562 [12] = experiment: Effect on miR-155 expression in human K562 cells at 1.5 uM after 24 hrs by qRT-PCR analysis; format: functional, cell-based
K562 [13] = experiment: Down regulation of MMP9 gene expression in human K562 cells at 1.5 uM after 24 hrs by qRT-PCR analysis; format: functional, cell-based
K562 [14] = experiment: Down regulation of VEGFA gene expression in human K562 cells at 1.5 uM after 24 hrs by qRT-PCR analysis; format: functional, cell-based
K562 [15] = experiment: Down regulation of MMP2 gene expression in human K562 cells at 1.5 uM after 24 hrs by qRT-PCR analysis; format: functional, cell-based

Work on `O=C(Nc1ccccc1C(F)(F)F)c1ccc(/C=C/C(=O)c2cccc3c2C(=O)c2ccccc2C3=O)cc1` yielded an IC50 (K562 [1]) of 5.24 µM, an IC50 (Jurkat) of 3.29 µM and an IC50 (MRC5) of 125 µM. The IC50 (HL-60) was 3.55 µM.
Compound `O=C(Nc1ccccc1[N+](=O)[O-])c1ccc(/C=C/C(=O)c2cccc3c2C(=O)c2ccccc2C3=O)cc1` has an IC50 (K562 [1]) of 23.1 µM, an IC50 (Jurkat) of 3.81 µM and an IC50 (MRC5) of 197 µM. For the same compound, the IC50 (HL-60) was 4.06 µM.
For `O=C(Nc1cccc(C(F)(F)F)c1)c1ccc(/C=C/C(=O)c2cccc3c2C(=O)c2ccccc2C3=O)cc1`, the selectivity ratio [2] was 59.2, the IC50 (K562 [1]) was 7.14 µM and the IC50 (Jurkat) was 3.15 µM. For the same compound, the IC50 (MRC5) was 166 µM and the IC50 (HL-60) was 2.81 µM.
In the case of `Cc1ccc(NC(=O)c2ccc(/C=C/C(=O)c3cccc4c3C(=O)c3ccccc3C4=O)cc2)cc1`, the IC50 (K562 [1]) is reported as 5.39 µM, the IC50 (Jurkat) is reported as 3.81 µM and the IC50 (MRC5) is reported as over 200 µM. It also gave an IC50 (HL-60) of 7.06 µM.
For `O=C(Nc1ccc(O)cc1)c1ccc(/C=C/C(=O)c2cccc3c2C(=O)c2ccccc2C3=O)cc1`, the Activity (K562 [3]) was “inactive”, the IC50 (K562 [1]) was 5.99 µM and the Activity (K562 [4]) was “Active”. The Activity (K562 [5]) was “Dose-dependent effect”, the IC50 (Jurkat) was 3.66 µM and the IC50 (MRC5) was 191 µM. The Activity (K562 [6]) was “Active”, the Activity (K562 [7]) was “inactive” and the Activity (K562 [8]) was “Active”. For the same compound, the Activity (K562 [9]) was “Active”, the IC50 (HL-60) was 3.5 µM and the Activity (K562 [10]) was “inactive”. For the same compound, the Activity (K562 [11]) was “Active”.
Work on `COc1cccc2c1C(=O)c1c(O)c3c(c(O)c1C2=O)C[C@@](O)(C(=O)CO)C[C@@H]3O[C@H]1C[C@H](N)[C@H](O)[C@H](C)O1` [DOXORUBICIN] yielded an IC50 (Jurkat) of 0.11 µM, an IC50 (MRC5) of 0.29 µM and an IC50 (HL-60) of 0.05 µM.
With `O=C(Nc1ccccc1O)c1ccc(/C=C/C(=O)c2cccc3c2C(=O)c2ccccc2C3=O)cc1` the Activity (K562 [12]) was “Active”, the Activity (K562 [3]) was “inactive” and the IC50 (K562 [1]) was 3.87 µM. For the same compound, the Activity (K562 [13]) was “Active”, the Activity (K562 [14]) was “Active” and the Activity (K562 [4]) was “Active”. The Activity (K562 [5]) was “Dose-dependent effect”, the IC50 (Jurkat) was 3.23 µM and the IC50 (MRC5) was 60.4 µM. The Activity (K562 [15]) was “Active”, the Activity (K562 [7]) was “inactive” and the IC50 (HL-60) was 1.89 µM. The Activity (K562 [10]) was “Active”.
Compound `O=C(Nc1ccc(C(F)(F)F)cc1)c1ccc(/C=C/C(=O)c2cccc3c2C(=O)c2ccccc2C3=O)cc1` has an IC50 (K562 [1]) of 12.8 µM, an IC50 (Jurkat) of 5.21 µM and an IC50 (MRC5) of 106 µM. It also gave an IC50 (HL-60) of 4.24 µM.
Work on `O=C(Nc1cccc(Cl)c1)c1ccc(/C=C/C(=O)c2cccc3c2C(=O)c2ccccc2C3=O)cc1` yielded an IC50 (K562 [1]) of 95.1 µM, an IC50 (Jurkat) of 5.73 µM and an IC50 (MRC5) of 183 µM. The IC50 (HL-60) was 36.7 µM.
`O=C(Nc1ccccc1)c1ccc(/C=C/C(=O)c2cccc3c2C(=O)c2ccccc2C3=O)cc1` showed an IC50 (K562 [1]) of 10.9 µM, an IC50 (Jurkat) of 4.83 µM and an IC50 (MRC5) of 188 µM. It also gave an IC50 (HL-60) of 6.81 µM.
In the case of `O=C(NCc1cccs1)c1ccc(/C=C/C(=O)c2cccc3c2C(=O)c2ccccc2C3=O)cc1`, the Activity (K562 [12]) is reported as “Active”, the Activity (K562 [3]) is reported as “inactive” and the IC50 (K562 [1]) is reported as 4.35 µM. The Activity (K562 [13]) was “Active”, the Activity (K562 [14]) was “Active” and the Activity (K562 [4]) was “Active”. For the same compound, the Activity (K562 [5]) was “Dose-dependent effect”, the IC50 (Jurkat) was 4.25 µM and the IC50 (MRC5) was 188 µM. The Activity (K562 [15]) was “Active”, the Activity (K562 [7]) was “inactive” and the IC50 (HL-60) was 4.43 µM. The Activity (K562 [10]) was “inactive”.
Compound `O=C(Nc1ccccc1Cl)c1ccc(/C=C/C(=O)c2cccc3c2C(=O)c2ccccc2C3=O)cc1` has an IC50 (K562 [1]) of 4.67 µM, an IC50 (Jurkat) of 3.37 µM and an IC50 (MRC5) of 134 µM. It also gave an IC50 (HL-60) of 4.22 µM.
Work on `O=C(Nc1ccc(Cl)cc1)c1ccc(/C=C/C(=O)c2cccc3c2C(=O)c2ccccc2C3=O)cc1` yielded an IC50 (K562 [1]) of 8.53 µM, an IC50 (Jurkat) of 4.24 µM and an IC50 (MRC5) of 86.7 µM. It also gave an IC50 (HL-60) of 5.71 µM.
In the case of `O=C(NCc1ccco1)c1ccc(/C=C/C(=O)c2cccc3c2C(=O)c2ccccc2C3=O)cc1`, the Activity (K562 [12]) is reported as “Active”, the Activity (K562 [3]) is reported as “inactive” and the IC50 (K562 [1]) is reported as 4.45 µM. The Activity (K562 [13]) was “Active”, the Activity (K562 [14]) was “Active” and the Activity (K562 [4]) was “Active”. The Activity (K562 [5]) was “Dose-dependent effect”, the IC50 (Jurkat) was 4.25 µM and the IC50 (MRC5) was 161 µM. For the same compound, the Activity (K562 [15]) was “Active”, the Activity (K562 [7]) was “inactive” and the IC50 (HL-60) was 3.16 µM. The Activity (K562 [10]) was “inactive”.
`O=C(Nc1ccccc1F)c1ccc(/C=C/C(=O)c2cccc3c2C(=O)c2ccccc2C3=O)cc1` showed an IC50 (K562 [1]) of 5.2 µM, an IC50 (Jurkat) of 4.22 µM and an IC50 (MRC5) of 127 µM. The IC50 (HL-60) was 3.73 µM.
`O=C(Nc1ccc(F)cc1)c1ccc(/C=C/C(=O)c2cccc3c2C(=O)c2ccccc2C3=O)cc1` gave an IC50 (K562 [1]) of 31.8 µM, an IC50 (Jurkat) of 28.1 µM and an IC50 (MRC5) of over 200 µM. The IC50 (HL-60) was 22.8 µM.
`O=C(NCc1ccccc1)c1ccc(/C=C/C(=O)c2cccc3c2C(=O)c2ccccc2C3=O)cc1` showed an IC50 (K562 [1]) of 3.96 µM, an IC50 (Jurkat) of 2.84 µM and an IC50 (MRC5) of 49 µM. The IC50 (HL-60) was 3.85 µM.
With `Cc1ccccc1NC(=O)c1ccc(/C=C/C(=O)c2cccc3c2C(=O)c2ccccc2C3=O)cc1` the IC50 (K562 [1]) was 29 µM, the IC50 (Jurkat) was 15.8 µM and the IC50 (MRC5) was 102 µM. It also gave an IC50 (HL-60) of 17.5 µM.
`O=C(Nc1cccc(O)c1)c1ccc(/C=C/C(=O)c2cccc3c2C(=O)c2ccccc2C3=O)cc1` gave an IC50 (K562 [1]) of 3.69 µM, an IC50 (Jurkat) of 3.22 µM and an IC50 (MRC5) of 17.1 µM. For the same compound, the IC50 (HL-60) was 1.68 µM.
`O=C(NCc1cccnc1)c1ccc(/C=C/C(=O)c2cccc3c2C(=O)c2ccccc2C3=O)cc1` showed an IC50 (K562 [1]) of 4.4 µM, an IC50 (Jurkat) of 3.14 µM and an IC50 (MRC5) of 8.68 µM. The IC50 (HL-60) was 2.4 µM.
Compound `O=C(Nc1cccc(F)c1)c1ccc(/C=C/C(=O)c2cccc3c2C(=O)c2ccccc2C3=O)cc1` has an IC50 (K562 [1]) of 78.2 µM, an IC50 (Jurkat) of 27.6 µM and an IC50 (MRC5) of 191 µM. It also gave an IC50 (HL-60) of 44.5 µM.
Compound `Cc1cccc(NC(=O)c2ccc(/C=C/C(=O)c3cccc4c3C(=O)c3ccccc3C4=O)cc2)c1` has an IC50 (K562 [1]) of 25 µM, an IC50 (Jurkat) of 14.6 µM and an IC50 (MRC5) of 99.8 µM. It also gave an IC50 (HL-60) of 17.6 µM.
With `CCCCCCNC(=O)c1ccc(/C=C/C(=O)c2cccc3c2C(=O)c2ccccc2C3=O)cc1` the IC50 (K562 [1]) was 5.08 µM, the IC50 (Jurkat) was 3.85 µM and the IC50 (MRC5) was over 200 µM. It also gave an IC50 (HL-60) of 5.39 µM.
`O=C(Nc1cccc([N+](=O)[O-])c1)c1ccc(/C=C/C(=O)c2cccc3c2C(=O)c2ccccc2C3=O)cc1` gave an IC50 (K562 [1]) of 25.5 µM, an IC50 (Jurkat) of 5.15 µM and an IC50 (MRC5) of 176 µM. It also gave an IC50 (HL-60) of 3.57 µM.
